Source: US5686448A (priority 1995, dated 1997)
Like-named read-outs stand apart in the source and are kept apart here.

What was measured:
HSV-2 (333 strain) = conditions: for % plaque inhibition: 2 hours pre-incubation
Method: In Series No. 1 of Example No. 1, monolayer cultures of Vero, RK-13 (rabbit kidney), and WISH (human amnion, Hayflick) cells were used in the experiments of Example No. 1. The cells were grown in Basal Minimal Eagle's Media supplemented with 5% fetal calf serum, 1% glutamine, sodium bicarbonate and antibiotics. Cultures were maintained in a maintenance media that was the same media, except that the maintenance media contained 2% fetal calf serum. An F Strain of HSV-1 was chosen because it is a well-known prototype of HSV-1. This F Strain can be obtained from the American Type Culture Collection (ATCC), 12301 Parklawn Drive, Rockville, Md. 20852, at which it is identified as ATC-VR 733. For studies with HSV-2, a G strain of HSV-2 (ATCC-VR 734) and a 333 strain of HSV-2 were selected. These strains also can be obtained from the ATCC.
Accordingly, the pre-inoculation experiments measured the effect of the drug on a cell that was already infected with the virus. The pre-incubation experiments measured the cell cultures that were treated with the drug prior to the inoculation to determine if these cells then would be permissive or non-permissive to the tested virus. In these experiments, plaque reduction assays provided a quantitative measure of antiviral activity and was deemed to be reliable and objective.
In the pre-incubation experiments, the media was either decanted or gently aspirated from the cultures. After decanting or aspirating, 1 ml of the drug dilution plus maintenance media was added to the cultures. The cultures that served as virus controls or cell controls received 2 ml of maintenance media. After the pre-treatment period, the media was again aspirated and the cell cultures were infected with the virus.
When this occurred, the cultures were fixed and stained with crystal violet. The plaque were then carefully counted under the microscope. By such a counting and careful comparison, percentages of plaque inhibition in the treated cultures were then calculated.
The 333 strain, which can be obtained from ATCC, was used.

HSV-1 (McKrae strain) [1] = conditions: for No. of Plaques: virus controls 270, 270, 252
Method: All cultures were incubated at 37° C. in a 5% CO2 humidified atmosphere. The cultures were stained with crystal violet to aid in counting the plaque.

cell-free HSV virus = conditions: 20 mg/ml
Method: Both mixtures were maintained at 4° C. for 30 minutes, 60 minutes, or 90 minutes. 0.3 ml of the solutions were plated onto susceptible cell cultures and incubated at 37° C. for 36 hours. All cultures were stained and compared to the virus control.

HSV-1 (F strain) [2] = system: HSV-1 (F strain)
HSV-1 (F strain) [3] = system: HSV-1 (F strain); remark: listed apart in the source
HSV-1 (McKrae strain) [4] = conditions: 20 mg/ml
HSV-1 (McKrae strain) [5] = conditions: for cells exhibiting CPE, area of infection per field: 20 mg/ml
[6] = system: HSV types 1 and 2 (herpes simplex)
[7] = Exp. 1D, added after adsorption, 25.0 mg/culture
[8] = Exp. 1D, added after adsorption, 50.0 mg/culture
[9] = Patient B, fourth treatment 4.8 cc
[10] = Patient B, third treatment 4.5 cc
[11] = Patient I, three months after second infusion

CC[N+](CC)(CC)CC.[Cl-] [TEAC, tetraethylammonium chloride]
sensitivity to TEAC vs HSV-1 (HSV-2 (333 strain); 333 strain): even more sensitive to TEAC than HSV-1
% plaque inhibition (HSV-2 (333 strain); 12.5 mg/culture): 25%
% plaque inhibition (HSV-2 (333 strain); 25 mg/culture): 42%
% plaque inhibition (HSV-2 (333 strain); 50 mg/culture): 56%
inhibition of in vitro replication (HSV-2 (333 strain); HSV-2, summary): inhibited the in vitro replication of HSV-1 and HSV-2
enhancement of plaque (HSV-1 (McKrae strain) [1]; 12.5 mg/ml): apparent enhancement of plaque
No. of Plaques (HSV-1 (McKrae strain) [1]; 12.5 mg/ml): 300
monolayer appearance (HSV-1 (McKrae strain) [1]; 25 mg/ml): thinned out appearance
No. of Plaques (HSV-1 (McKrae strain) [1]; 25 mg/ml): 0
plaque inhibition (HSV-1 (McKrae strain) [1]; 12.5, 6.25, 3.125 mg/ml): not significantly effective in achieving plaque inhibition
inactivation of cell-free virus (cell-free HSV virus): does not inactivate the virus
average plaque number (HSV-1 (F strain) [2]; 2.5 mg/ml (1 ml plus 4 ml media), Vero, control 488.5): 75.5 plaque
size of the plaque vs control (HSV-1 (F strain) [2]; 2.5 mg/ml, Vero): appreciably smaller
suppression of viral growth (HSV-1 (F strain) [2]; summary of first series): not only by the reduced number of plaque, but also by their reduced size
% plaque inhibition (HSV-1 (F strain) [3]; Exp. 1C, added after inoculation, 0.62 mg/culture): 30%
% plaque inhibition (HSV-1 (F strain) [3]; Exp. 1C, added after inoculation, 1.25 mg/culture): 39%
% plaque inhibition (HSV-1 (F strain) [3]; Exp. 1C, added after inoculation, 2.50 mg/culture): 46%
% plaque inhibition (HSV-1 (F strain) [3]; Exp. 1C, added after inoculation, 5.00 mg/culture): 45%
% plaque inhibition (HSV-1 (F strain) [3]; Exp. 1C, added after inoculation, 10.00 mg/culture): 56%
antiviral activity (HSV-1 (F strain) [3]; Exp. 1C, all dilutions): Antiviral activity was seen in all dilutions tested
% plaque inhibition (HSV-1 (F strain) [3]; Exp. 1D, added after adsorption, 6.2 mg/culture): 20%
% plaque inhibition (HSV-1 (F strain) [3]; Exp. 1D, added after adsorption, 12.5 mg/culture): 62%
plaque formation (HSV-1 (F strain) [3]; Exp. 1D, added after adsorption, 25 mg/culture): no plaque formed
% plaque inhibition (HSV-1 (F strain) [3]; [7]): 100%
cell layer appearance (thin = cells attached, monolayer not confluent) (HSV-1 (F strain) [3]; [7]): thin
plaque formation (HSV-1 (F strain) [3]; Exp. 1D, added after adsorption, 50 mg/culture): no plaque formed
% plaque inhibition (HSV-1 (F strain) [3]; [8]): 100%
cell layer appearance (thin = cells attached, monolayer not confluent) (HSV-1 (F strain) [3]; [8]): thin
inhibition of in vitro replication (HSV-1 (F strain) [3]; HSV-1, summary): inhibited the in vitro replication of HSV-1 and HSV-2
change in morphology of cells (WISH cells; 5, 2.5, 1.25 mg/culture overnight): No change in the morphology of the cells
growth or general appearance vs untreated (WISH cells; 5, 2.5, 1.25 mg/culture, additional 24 hours in fresh medium): no apparent difference in the growth or general appearance
virus yield (HSV-1 (McKrae strain) [4]; cell, 6 hours P.I., 10^-1): 2 PFU/ml
virus yield (HSV-1 (McKrae strain) [4]; cell, 6 hours P.I., 10^-2): 5 PFU/ml
virus yield (HSV-1 (McKrae strain) [4]; cell, 6 hours P.I., Und.): 12 PFU/ml
virus yield (HSV-1 (McKrae strain) [4]; cell, 10 hours P.I., 10^-1): 3 PFU/ml
virus yield (HSV-1 (McKrae strain) [4]; cell, 10 hours P.I., 10^-2): 0 PFU/ml
virus yield (HSV-1 (McKrae strain) [4]; cell, 10 hours P.I., Und.): 13 PFU/ml
virus yield (HSV-1 (McKrae strain) [4]; cell, 20 hours P.I., 10^-1): 5 PFU/ml
virus yield (HSV-1 (McKrae strain) [4]; cell, 20 hours P.I., 10^-2): 0 PFU/ml
virus yield (HSV-1 (McKrae strain) [4]; cell, 20 hours P.I., Und.): 42 PFU/ml
virus yield (HSV-1 (McKrae strain) [4]; cell, 24 hours P.I., 10^-1): 32 PFU/ml
virus yield (HSV-1 (McKrae strain) [4]; cell, 24 hours P.I., 10^-2): 10 PFU/ml
virus yield (HSV-1 (McKrae strain) [4]; cell, 24 hours P.I., Und.): 58 PFU/ml
virus yield (HSV-1 (McKrae strain) [4]; cell, 28 hours P.I., 10^-1): TMTC
virus yield (HSV-1 (McKrae strain) [4]; cell, 28 hours P.I., 10^-2): 15 PFU/ml
virus yield (HSV-1 (McKrae strain) [4]; cell, 28 hours P.I., Und.): W.O.
virus yield (HSV-1 (McKrae strain) [4]; supernatant, 6 hours P.I., 10^-1): 0 PFU/ml
virus yield (HSV-1 (McKrae strain) [4]; supernatant, 6 hours P.I., 10^-2): 0 PFU/ml
virus yield (HSV-1 (McKrae strain) [4]; supernatant, 6 hours P.I., 10^-3): 0 PFU/ml
virus yield (HSV-1 (McKrae strain) [4]; supernatant, 10 hours P.I., 10^-1): 0 PFU/ml
virus yield (HSV-1 (McKrae strain) [4]; supernatant, 10 hours P.I., 10^-2): 0 PFU/ml
virus yield (HSV-1 (McKrae strain) [4]; supernatant, 10 hours P.I., 10^-3): 0 PFU/ml
virus yield (HSV-1 (McKrae strain) [4]; supernatant, 20 hours P.I., 10^-1): 0 PFU/ml
virus yield (HSV-1 (McKrae strain) [4]; supernatant, 20 hours P.I., 10^-2): 0 PFU/ml
virus yield (HSV-1 (McKrae strain) [4]; supernatant, 20 hours P.I., 10^-3): 0 PFU/ml
virus yield (HSV-1 (McKrae strain) [4]; supernatant, 24 hours P.I., 10^-1): 0 PFU/ml
virus yield (HSV-1 (McKrae strain) [4]; supernatant, 24 hours P.I., 10^-2): 0 PFU/ml
virus yield (HSV-1 (McKrae strain) [4]; supernatant, 24 hours P.I., 10^-3): 0 PFU/ml
virus yield (HSV-1 (McKrae strain) [4]; supernatant, 28 hours P.I., 10^-1): 0 PFU/ml
virus yield (HSV-1 (McKrae strain) [4]; supernatant, 28 hours P.I., 10^-2): 0 PFU/ml
virus yield (HSV-1 (McKrae strain) [4]; supernatant, 28 hours P.I., 10^-3): 0 PFU/ml
cells exhibiting CPE, area of infection per field (HSV-1 (McKrae strain) [5]; 6 hours P.I., virus control 1/4): 1/6
cells exhibiting CPE, area of infection per field (HSV-1 (McKrae strain) [5]; 30 hours P.I., virus control 1/2): scattered
No. of cells with virus particles (HSV-1 (McKrae strain) [5]; 6 hours P.I., 100 cells examined, control 0): 0
No. of cells with internuclear dense bodies (HSV-1 (McKrae strain) [5]; 6 hours P.I., 100 cells examined, control 14): 12
Total % (HSV-1 (McKrae strain) [5]; 6 hours P.I., 100 cells examined, control 14%): 12%
cell membrane appearance (HSV-1 (McKrae strain) [5]; 6 hours post infection): unusually extended and wavy
No. of cells with internuclear dense bodies (HSV-1 (McKrae strain) [5]; 24 hours P.I., 300 cells examined, control 0 of 50): 12
No. of cells with virus particles (HSV-1 (McKrae strain) [5]; 24 hours P.I., 300 cells examined, control 50 of 50): 8
Total % (HSV-1 (McKrae strain) [5]; 24 hours P.I., 300 cells examined, control 100%): 6%
nucleocapsid size (HSV-1 (McKrae strain) [5]; 24 hours post infection): about 99.6 A
nucleocapsids in cytoplasm (HSV-1 (McKrae strain) [5]; 24 hours post infection): coreless nucleocapsids in paracrystalline arrays
virus particles in inter-cellular space (HSV-1 (McKrae strain) [5]; 24 hours post infection): some abnormal virus particles were detected
cell layer appearance (vaccinia): thin
plaque formation (vaccinia): did not have any plaque
crusting (HSV type 1; Patient L, 2.9 cc, normally 3 weeks): on the 7th day after the treatment, the crusting had all disappeared
labialis lesion (HSV type 1; Patient M, 1% TEAC ointment resumed, three days later): the lesion had not spread and had now crusted
clearing of lesions (HSV type 1; Patient M, 1% TEAC ointment, five days later): cleared in a shorter time period than usual
oral lesion resolution ([6]; Patient B, 3 days after first infusion): resolution occurring in a shorter than usual time
severity of attack ([6]; Patient B, about a month after second treatment): the attack was never serious and that no lesion appeared
attacks ([6]; Patient B, about a month later): no more attacks
aura and lesion ([6]; Patient B, day after second 3.7 cc): absence of an aura and no occurrence of the expected lesion except for a very small lesion
duration of penile lesions [6, 9]: 8 days
value of treatment [6, 9]: the last treatment appeared of no value
recurrences [6, 10]: recurrences were not eliminated
time to disappearance of penile lesion [6, 10]: 2 to 3 days
fever blisters ([6]; Patient C): cleared right away
labial lesions ([6]; Patient C): two attacks of labial lesions cleared rapidly
forehead lesion ([6]; Patient C, about a month later): crusted relatively quickly
further problems ([6]; Patient C, five and ten months after initial treatment): no further problems
lesions ([6]; Patient C, next day, 3.85 cc (5 mg/kg)): markedly improved
infection ([6]; Patient I, first infusion 4.7 cc): all clear
further lesions [6, 11]: no further lesions until one developed in the preceding week
nocturnal headaches [6, 11]: no further nocturnal headaches
